# Values of other authors in PubChem BioAssay AID1259410 (Chemical Carcinogenesis Research Information System (CCRIS), 2018).
# Test system: rodent tumor promotion studies, tumor incidence
# Experiment: CCRIS tumor promotion studies
# Conditions: Route [Promoter]: DERMAL, Species: MOUSE
structure (smiles),measurement,setting,value
CCCCCCCCCCCCCC(=O)O[C@@H]1[C@@H](C)[C@@]2(O)[C@@H](C=C(CO)C[C@]3(O)C(=O)C(C)=C[C@@H]23)[C@@H]2C(C)(C)[C@]12OC(C)=O,outcome,"Carcinogen: DIBENZO[A,L]PYRENE, 191-30-0, Doses [Carcinogen]: 0.25, 1 NMOL IN 100 µL ACETONE, Doses [Promoter]: 2.16 NMOL IN 100 µL ACETONE 2/WK FOR 27 WK BEGINNING 1 WK POST CARCINOGEN DOSE (STUDY DURATION: 28 WK), Route [Carcinogen]: DERMAL, Strain/Sex: SENCAR/FEMALE",skin: tumor
same,outcome,"Carcinogen: DIBENZO[A,L]PYRENE, 191-30-0, Doses [Carcinogen]: 1.33, 4, 12 NMOL IN 100 ML ACETONE ONCE, Doses [Carcinogen]: 1.33, 4, 12 NMOL IN 100 ML ACETONE ONCE, Doses [Promoter]: 1.62 NMOL IN 100 ML ACETONE 2/WK FOR 28 WK BEGINNING 1 WK POST CARCINOGEN DOSE (STUDY DURATION: 30 WK), Route [Carcinogen]: DERMAL, Strain/Sex: SENCAR/FEMALE",skin: tumor
same,outcome,"Carcinogen: DIBENZO[A,L]PYRENE, 191-30-0, Doses [Carcinogen]: 4, 20, 100 NMOL IN 100 µL ACETONE ONCE, Doses [Carcinogen]: 4, 20, 100 NMOL IN 100 µL ACETONE ONCE, Doses [Promoter]: 3.24 NMOL/100 µL ACETONE 2/WK BEGINNING 2 WK POST CARCINOGEN DOSE AND CONTINUING FOR 24 WK (STUDY DURATION: 27 WK), Route [Carcinogen]: DERMAL, Strain/Sex: SENCAR/FEMALE",skin: tumor
same,outcome,"Carcinogen: DIBENZO[A,L]PYRENE, 191-30-0, Doses [Carcinogen]: 33.3, 100, 300 NMOL IN 100 µL ACETONE ONCE, Doses [Carcinogen]: 33.3, 100, 300 NMOL IN 100 µL ACETONE ONCE, Doses [Promoter]: 3.24 NMOL/100 µL ACETONE ONCE 1 WK POST CARCINOGEN DOSE THEN 2/WK BEGINNING 3 WK LATER AND CONTINUING FOR 11 WK (STUDY D, Route [Carcinogen]: DERMAL, Strain/Sex: SENCAR/FEMALE",skin: tumor
same,outcome,"Carcinogen: DIMETHYLBENZ[A]ANTHRACENE, 57-97-6, Doses [Carcinogen]: 0.2 UMOL IN O.2 ML ACETONE ONCE, Doses [Promoter]: 0, 5 UG IN 0.2 ML ACETONE 3/WK ADMINISTERED 7 D POST CARCINOGEN DOSE AND CONTINUING FOR DURATION OF STUDY (STUDY DURATIO, Route [Carcinogen]: DERMAL, Strain/Sex: SWISS/FEMALE","skin: tumor, squamous cell papilloma, keratoacanthoma"
same,outcome,"Carcinogen: N-METHYL-N'-NITRO-N-NITROSOGUANIDINE, 70-25-7, Doses [Carcinogen]: 4 UMOL IN 200 µL ACETONE ONCE, Doses [Promoter]: 0, 10 NMOL IN 200 µL ACETONE 2/WK FOR 52 WK BEGINNING 2 WK POST CARCINOGEN DOSE (STUDY DURATION: 52 WK), Route [Carcinogen]: DERMAL, Strain/Sex: C3H/CB/S/GEN/FEMALE",skin: tumor
same,outcome,"Carcinogen: N-METHYL-N'-NITRO-N-NITROSOGUANIDINE; 70-25-7; Doses [Carcinogen]: 4 UMOL IN 200 µL ACETONE ONCE; Doses [Promoter]: 0; 10 NMOL IN 200 µL ACETONE 2/WK FOR 52 WK BEGINNING 2 WK POST CARCINOGEN DOSE STUDY DURATION: 52 WK), Route [Carcinogen]: DERMAL, Strain/Sex: C3H/FEMALE",skin: tumor
same,outcome,"Carcinogen: PHENOXYOXIRANE, 79526-11-7, Doses [Carcinogen]: 5 UMOL IN 0.2 ML 15% DMSO IN ACETONE ONCE, Doses [Promoter]: 0, 15 NMOL IN 0.1 ML ACETONE ONCE 18-24 HR PRIOR TO CARCINOGEN DOSE THEN BEGINNING 1 WK LATER 2/WK FOR DURATION OF STUDY, Route [Carcinogen]: DERMAL, Strain/Sex: ICR/FEMALE",skin: papilloma
same,outcome,"Carcinogen: PHENYL VINYL ETHER, 766-94-9, Doses [Carcinogen]: 5 UMOL IN 0.2 ML 15% DMSO IN ACETONE ONCE, Doses [Promoter]: 0, 15 NMOL IN 0.1 ML ACETONE ONCE 18-24 HR PRIOR TO CARCINOGEN DOSE THEN BEGINNING 1 WK LATER 2/WK FOR DURATION OF STUDY, Route [Carcinogen]: DERMAL, Strain/Sex: ICR/FEMALE",skin: papilloma
same,outcome,"Carcinogen: SYN-1,2-DIHYDROXY-3,4-EPOXY-1,2,3,4-TETRAHYDRO-5,6-DIMETHYLCHRYSENE, 139562-15-5, Doses [Carcinogen]: 100 NMOL IN 0.1 ML ACETONE ONCE, Doses [Promoter]: 0, 2.5 UG IN 0.1 ML ACETONE 3/WK FOR 20 WK BEGINNING 10 D POST CARCINOGEN DOSE (STUDY DURATION: 20 WK), Route [Carcinogen]: DERMAL, Strain/Sex: CD-1/FEMALE",skin: tumor
same,outcome,"Carcinogen: THIRAM, 137-26-8, Doses [Carcinogen]: 100 MG/KG BW 3/WK FOR 3 WK, Doses [Promoter]: 0, 5 UG IN 100 µL ACETONE 3/WK FOR 51 WK BEGINNING 1 WK POST CARCINOGEN TREATMENT (STUDY DURATION: 54 WK), Route [Carcinogen]: DERMAL, Strain/Sex: SWISS/FEMALE",skin: tumor
same,outcome,"Carcinogen: THIRAM, 137-26-8, Doses [Carcinogen]: 100 MG/KG BW IN 100 µL DMSO ONCE, Doses [Promoter]: 5 UG IN 100 µL ACETONE 3/WK BEGINNING 1 WK POST CARCINOGEN DOSE (STUDY DURATION: 52 WK), Route [Carcinogen]: DERMAL, Strain/Sex: SWISS/MALE",skin: tumor
same,outcome,"Carcinogen: THIRAM, 137-26-8, Doses [Carcinogen]: 100 MG/KG BW IN 100 µL DMSO ONCE, Doses [Promoter]: 5 UG IN 100 µL ACETONE 3/WK FOR 3 WK BEGINNING 1 WK POST CARCINOGEN DOSE (STUDY DURATION: 52 WK), Route [Carcinogen]: DERMAL, Strain/Sex: SWISS/FEMALE",skin: tumor
same,outcome,"Carcinogen: THIRAM, 137-26-8, Doses [Carcinogen]: 100 MG/KG BW IN 100 µL DMSO ONCE, Doses [Promoter]: 5 UG IN 100 µL ACETONE 3/WK FOR 51 WK BEGINNING 1 WK POST CARCINOGEN DOSE (STUDY DURATION: 52 WK), Route [Carcinogen]: DERMAL, Strain/Sex: SWISS/MALE",skin: tumor
same,outcome,"Carcinogen: TRANS-4,5-DIHYDROBENZO[J]FLUORANTHENE-4,5-DIOL, 106542-80-7, Doses [Carcinogen]: 0, 1, 3 UMOL (TOTAL DOSE) IN ACETONE SOLUTION 1/2 D FOR 10 DOSES, Doses [Carcinogen]: 0, 1, 3 UMOL (TOTAL DOSE) IN ACETONE SOLUTION 1/2 D FOR 10 DOSES, Doses [Promoter]: 2.5 UG IN ACETONE 3/WK BEGINNING 10 D POST LAST CARCINOGEN DOSE AND CONTINUING FOR 20 WK (STUDY DURATION: 23 WK), Route [Carcinogen]: DERMAL, Strain/Sex: CD-1/FEMALE",skin: tumors
same,outcome,"Carcinogen: TRANS-9,10-DIHYDRO-5,9,10-TRIHYDROXYBENZO[B]FLUORANTHENE, 114451-04-6, Doses [Carcinogen]: 0, 0.04, 0.12, 0.4 UMOL (TOTAL DOSE) APPLIED IN SUBDOSES 1/2 D FOR 5 WK, Doses [Carcinogen]: 0, 0.04, 0.12, 0.4 UMOL (TOTAL DOSE) APPLIED IN SUBDOSES 1/2 D FOR 5 WK, Doses [Promoter]: 2.5 UG IN 100 µL ACETONE 3/WK FOR 20 WK BEGINNING 10 D POST LAST CARCINOGEN DOSE (STUDY DURATION: 26 WK), Route [Carcinogen]: DERMAL, Strain/Sex: CD-1/FEMALE",skin: tumor
same,outcome,"Carcinogen: TRANS-9,10-DIHYDRO-6,9,10-TRIHYDROXYBENZO[B]FLUORANTHENE, 114451-05-7, Doses [Carcinogen]: 0, 0.4 UMOL (TOTAL DOSE) APPLIED IN SUBDOSES 1/2 D FOR 5 WK, Doses [Promoter]: 2.5 UG IN 100 µL ACETONE 3/WK FOR 20 WK BEGINNING 10 D POST LAST CARCINOGEN DOSE (STUDY DURATION: 26 WK), Route [Carcinogen]: DERMAL, Strain/Sex: CD-1/FEMALE",skin: tumor
same,outcome,"Carcinogen: TRANS-9,10-DIHYDROBENZO[J]FLUORANTHENE-9,10-DIOL, 76479-14-6, Doses [Carcinogen]: 0, 3 UMOL (TOTAL DOSE) IN ACETONE SOLUTION 1/2 D FOR 10 DOSES, Doses [Promoter]: 2.5 UG IN ACETONE 3/WK BEGINNING 10 D POST LAST CARCINOGEN DOSE AND CONTINUING FOR 20 WK (STUDY DURATION: 23 WK), Route [Carcinogen]: DERMAL, Strain/Sex: CD-1/FEMALE",skin: tumors
same,outcome,"Carcinogen: VINYL CARBAMATE EPOXIDE, 82617-23-0, Doses [Carcinogen]: 0, 5.8, 11.5 UMOL IN 0.2 ML 15% DMSO 1/WK FOR 5 WK, Doses [Carcinogen]: 0, 5.8, 11.5 UMOL IN 0.2 ML 15% DMSO 1/WK FOR 5 WK, Doses [Promoter]: 0, 2.5 UG IN 0.1 ML ACETONE 18-24 HR PRIOR TO EACH CARCINOGEN DOSE THEN 2/WK FOR DURATION OF STUDY (STUDY DURATION: 22 W, Route [Carcinogen]: DERMAL, Strain/Sex: CD-1/FEMALE",skin: papilloma
same,outcome,"Carcinogen: VINYL CARBAMATE EPOXIDE, 82617-23-0, Doses [Carcinogen]: 1.5, 11.5 UMOL IN 0.2 ML 15% DMSO ONCE, Doses [Promoter]: 0, 2.5 UG IN 0.1 ML ACETONE 18-24 HR PRIOR TO CARCINOGEN DOSE THEN 2/WK FOR DURATION OF STUDY (STUDY DURATION: 22 WK), Route [Carcinogen]: DERMAL, Strain/Sex: CD-1/FEMALE",skin: papilloma
same,outcome,"Carcinogen: VINYL CARBAMATE, 15805-73-9, Doses [Carcinogen]: 0, 5.8, 11.5 UMOL IN 0.2 ML 15% DMSO 1/WK FOR 5 WK, Doses [Carcinogen]: 0, 5.8, 11.5 UMOL IN 0.2 ML 15% DMSO 1/WK FOR 5 WK, Doses [Promoter]: 0, 2.5 UG IN 0.1 ML ACETONE 18-24 HR PRIOR TO EACH CARCINOGEN DOSE THEN 2/WK FOR DURATION OF STUDY (STUDY DURATION: 22 W, Route [Carcinogen]: DERMAL, Strain/Sex: CD-1/FEMALE",skin: papilloma
same,outcome,"Carcinogen: VINYL CARBAMATE, 15805-73-9, Doses [Carcinogen]: 1.15, 11.5 UMOL IN 0.2 ML 15% DMSO ONCE, Doses [Promoter]: 0, 2.5 UG IN 0.1 ML ACETONE 18-24 HR PRIOR TO CARCINOGEN DOSE THEN 2/WK FOR DURATION OF STUDY (STUDY DURATION: 22 WK), Route [Carcinogen]: DERMAL, Strain/Sex: CD-1/FEMALE",skin: papilloma
same,outcome,"Carcinogen: X-RAY, Doses [Carcinogen]: 4.2 GY TO MALE MICE OF THE PARENT GENERATION, Doses [Promoter]: 0, 6.15 UG IN 0.1 ML ACETONE 2/WK FOR 24 WK ADMINISTERED TO F1 OFFSPRING OF IRRADIATED MALES BEGINNING AT 4 MO OF AGE (S, Route [Carcinogen]: WHOLE-BODY IRRADIATION, Strain/Sex: SHR/FEMALE",skin: tumor
same,outcome,"Carcinogen: X-RAY, Doses [Carcinogen]: 4.2 GY TO MALE MICE OF THE PARENT GENERATION, Doses [Promoter]: 0, 6.15 UG IN 0.1 ML ACETONE 2/WK FOR 24 WK ADMINISTERED TO F1 OFFSPRING OF IRRADIATED MALES BEGINNING AT 4 MO OF AGE (S, Route [Carcinogen]: WHOLE-BODY IRRADIATION, Strain/Sex: SHR/MALE",skin: tumor
same,outcome,"Carcinogen: X-RAY, Doses [Carcinogen]: 4.2 GY TO MALE MICE OF THE PARENT GENERATION, Doses [Promoter]: 0, 6.15 UG IN 0.1 ML ACETONE 2/WK FOR 24 WK ADMINISTERED TO F2 GENERATION OF IRRADIATED MALES BEGINNING AT 4 MO OF AGE (, Route [Carcinogen]: WHOLE-BODY IRRADIATION, Strain/Sex: SHR/FEMALE",skin: tumor
same,outcome,"Carcinogen: X-RAY, Doses [Carcinogen]: 4.2 GY TO MALE MICE OF THE PARENT GENERATION, Doses [Promoter]: 0, 6.15 UG IN 0.1 ML ACETONE 2/WK FOR 24 WK ADMINISTERED TO F2 GENERATION OF IRRADIATED MALES BEGINNING AT 4 MO OF AGE (, Route [Carcinogen]: WHOLE-BODY IRRADIATION, Strain/Sex: SHR/MALE",skin: tumor
